Data from PubChem BioAssay AID342 (DTP/NCI, 2004).
Values joined by “and” are separate entries in the source; they are usually repeats but may differ in a detail not shown here. Equal entries are not always repeated. Square brackets hold non-standard residues; d marks the D form. Peptide text beside a SMILES is read from it. ξ: configuration not given here. Ac5c = NC1(C(=O)O)CCCC1; ξS = NC(CO)C(=O)O

Test system: Swiss mice, Sarcoma 180 sc, mean tumor weight T/C
Experiment: NCI In Vivo Anticancer Drug Screen. Data for tumor model Sarcoma 180 (subcutaneous) in Swiss mice
Conditions: endpoint: mean tumor weight, higher = larger tumour
Method in brief: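 Mice bearing transplanted tumors were treated with compound, and survival or tumor size was measured. Values are expressed as the treated-group measurement (T) divided by the vehicle-treated control measurement (C).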

CC(C)CCCCCCCCCCCCC(=O)NCC(=O)NC1C(O)C(O)C(Nc2ncnc3nc[nH]c23)OC1C(O)CO (stereo not drawn)
T/C (dose: 0.3 mg/kg/injection, schedule: Q## X000 (ip), vehicle: carboxymethylcellulose (CMC)): 63 % of control | T/C (dose: 0.44 mg/kg/injection, schedule: Q## X000 (ip), vehicle: carboxymethylcellulose (CMC)): 61 % of control | T/C (dose: 0.6 mg/kg/injection, schedule: Q01DX007 (ip), vehicle: carboxymethylcellulose (CMC)): 58 % of control and 70 % of control | T/C (dose: 0.66 mg/kg/injection, schedule: Q## X000 (ip), vehicle: carboxymethylcellulose (CMC)): 53 % of control | T/C (dose: 0.9 mg/kg/injection, schedule: Q01DX007 (ip), vehicle: carboxymethylcellulose (CMC)): 36 % of control and 56 % of control | T/C (dose: 1.0 mg/kg/injection, schedule: Q## X000 (ip), vehicle: carboxymethylcellulose (CMC)): 36 % of control | T/C (dose: 1.35 mg/kg/injection, schedule: Q01DX007 (ip), vehicle: carboxymethylcellulose (CMC)): 82 % of control

CC(C)(C#N)C#N
T/C (dose: 125.0 mg/kg/injection, schedule: Q01DX007 (ip), vehicle: saline): 30 % of control | T/C (dose: 187.0 mg/kg/injection, schedule: Q01DX007 (ip), vehicle: saline): 36 % of control | T/C (dose: 375.0 mg/kg/injection, schedule: Q01DX007 (ip), vehicle: saline): 52 % of control and 58 % of control

Cc1cc(N)c2cc(NC(=O)/C=C\c3ccccc3Cl)ccc2n1
T/C (dose: 11.0 mg/kg/injection, schedule: Q01DX007 (ip), vehicle: carboxymethylcellulose (CMC)): 89 % of control | T/C (dose: 17.0 mg/kg/injection, schedule: Q01DX007 (ip), vehicle: carboxymethylcellulose (CMC)): 77 % of control | T/C (dose: 25.0 mg/kg/injection, schedule: Q01DX007 (ip), vehicle: carboxymethylcellulose (CMC)): 46 % of control

Nc1nc(Cc2ccccc2)cc(=O)[nH]1
T/C (dose: 62.5 mg/kg/injection, schedule: Q01DX007 (ip), vehicle: water): 88 % of control | T/C (dose: 125.0 mg/kg/injection, schedule: Q01DX007 (ip), vehicle: water): 78 % of control | T/C (dose: 250.0 mg/kg/injection, schedule: Q01DX007 (ip), vehicle: water): 67 % of control

CCOC(C)C(/C=N/NC(N)=S)=NNC(N)=S (stereo not drawn)
T/C (dose: 15.0 mg/kg/injection, schedule: Q01DX007 (ip), vehicle: saline): 82 % of control | T/C (dose: 30.0 mg/kg/injection, schedule: Q01DX007 (ip), vehicle: saline): 37 % of control | T/C (dose: 60.0 mg/kg/injection, schedule: Q01DX007 (ip), vehicle: saline): 47 % of control | T/C (dose: 120.0 mg/kg/injection, schedule: Q01DX007 (ip), vehicle: saline): 20 % of control

NC(CO)C(=O)NC1(C(=O)O)CCCC1 (stereo not drawn) (H-[ξS]-[Ac5c]-OH)
T/C (dose: 110.0 mg/kg/injection, schedule: Q01DX007 (ip), vehicle: carboxymethylcellulose (CMC)): 84 % of control | T/C (dose: 167.0 mg/kg/injection, schedule: Q01DX007 (ip), vehicle: carboxymethylcellulose (CMC)): 49 % of control | T/C (dose: 250.0 mg/kg/injection, schedule: Q01DX007 (ip), vehicle: carboxymethylcellulose (CMC)): 21 % of control

CCCOC(=O)C1(N)CCCC1
T/C (dose: 148.0 mg/kg/injection, schedule: Q01DX007 (ip), vehicle: saline): 42 % of control | T/C (dose: 225.0 mg/kg/injection, schedule: Q01DX007 (ip), vehicle: saline): 28 % of control

CCCOc1ccc2c(c1)CC[C@@H]1[C@@H]2CC[C@@]2(C)[C@H]1CC[C@]2(C)O
T/C (dose: 0.5 mg/kg/injection, schedule: Q#A X014 (sc), vehicle: steriod suspending solution): 110 % of control | T/C (dose: 5.0 mg/kg/injection, schedule: Q#A X014 (sc), vehicle: steriod suspending solution): 63 % of control | T/C (dose: 50.0 mg/kg/injection, schedule: Q#A X014 (sc), vehicle: steriod suspending solution): 84 % of control
